Test results: US10301263B2, “Anticonvulsant compound” (Royal Holloway and Bedford New College, priority 2014, dated 2019)

Legend:
AMPA receptor GluA2/3 = target: T1, AMPA receptor GluA2/3 (Homo sapiens, UniProt P42262+P42263); assay: Electrophysiology of Xenopus laevis oocytes expressing GluA2/3; type: cell-based; conditions: for reduction of AMPA-R generated current in comparison to the control / reduction of AMPA-R generated current in comparison to decanoic acid / reduction of AMPA-R generated current in comparison to 4-BCCA: GluA2/3, 1 mM; for reduction of AMPA-R generated current in comparison to the control: P<0.05 for #175, #177, P<0.001 for the others; for inhibition of AMPA receptors (subunit GluA2/3) compared to decanoic acid: dose curve vs decanoic acid; for reduction of AMPA-R generated current in comparison to decanoic acid: P<0.01 for #181, #182, #184, P<0.001 for #176, #185; for reduction of AMPA-R generated current in comparison to 4-BCCA: P<0.05 for #181, #184, P<0.01 for #182, P<0.001 for #176, #185
T1 construct: expressed in transfected cells; host or cells: Xenopus laevis oocytes injected with cRNA
Description: (§1) The AMPA receptor (flip isoform) cDNAs inserted in a SP6 polymerase expression vector (pSP6T) were a generous gift from Prof Ralf Schoepfer (NPP, UCL). RNA was transcribed in vitro from Mlu I linearized transcripts using the SP6 Promega RiboMax RNA synthesis kit (Madison, Wis.) according to manufacturer's protocols except for the addition of 0.75 mM capping nucleotide m7G(5′)ppp(5′)G (Promega, Madison, Wis.) and 1.6 mM GTP. cRNA concentrations and integrity were estimated by the intensity of fluorescence bands in RNA denaturating gels. AMPA receptor cRNAs were mixed in a nominal 1:1 ratio and approximately 5 ng was injected per oocyte.
Xenopus laevis oocytes were purchased from the European Xenopus Resource Centre, University of Portsmouth. Stage V to VI oocytes were mechanically dissected and then subjected to gentle shaking for approximately 30-50 min at room temperature with modified Barth's solution (in mM): NaCl 88, KCl 1, NaHCO3 2.4, MgCl2 0.82, CaCl2 0.77, Tris-Cl 15, adjusted to pH 7.4 with NaOH (Sigma-Aldrich, UK), supplemented with 50 IU/ml penicillin and 50 μg/ml streptomycin (Invitrogen, UK) and 50 μg/ml tetracycline (Sigma-Aldrich, UK) and 1% collagenase (type 1A). Healthy oocytes were manually defolliculated and the injections of cRNA for homomeric subunits alone (GluA1), or heteromeric mixtures of two subunits together (GluA2/GluA3) were made using an automated Drummond Nanoinject II injector (Broomall, Pa.). The oocytes were then incubated at 17° C. in modified Barth's solution for at least 48 hours before use in electrophysiological recordings.
Experiments were performed at room temperature (approximately 21-23° C.). An oocyte was placed in a recording chamber (0.3-0.5 ml volume) and perfused with ND96 solution (96 mM NaCl, 2 mM KCl, 1.8 mM CaCl2, 1 mM MgCl2, 5 mM HEPES, with pH adjusted to 7.5). Current and voltage electrodes were filled with 300 mM KCl and made from thin-walled borosilicate glass (GC150TF-7.5, Harvard Apparatus, Kent, UK) using a PC-10 electrode puller (Narashige Instruments, Japan) and had resistances of 0.5-2 MΩ. Oocytes were voltage-clamped to a holding potential of −50 mV or −60 mV using a Turbo TEC-03 amplifier (npi electronics, Tamm, Germany). Compounds were dissolved in distilled water or DMSO and dissolved in bathing solution to achieve their final concentrations during experiments, and were applied under gravity flow during the experiment by using a multi-valve perfusion system (VC3-8C, ALA Scientific Instruments, Farmingdale, N.Y.). The bath solutions were perfused at a rate of 10 ml/min. Recordings were filtered at 20 Hz and digitized at 100 Hz (Digidata 1322A, Molecular Devices, Sunnyvale, Calif.) before recording to computer hard disk. Data acquisition was performed using the Windows PC based programme, WinEDR v3.0.6 (John Dempster, University of Strathclyde, UK).
The data from the electrophysiology experiments were analyzed using GraphPad Prism software (GraphPad software, San Diego Calif., USA) and SPSS (IBM United Kingdom Limited). Statistical analysis was performed using ANOVA with Dunnett's or Tukey post hoc test, pair t-test or un-pair t-test. For the behavior experiment, the nonparametric test, Mann-Whitney test were used. Differences were considered as significant at P<0.05. […]

AMPA receptor GluA1/2 = target: T2, AMPA receptor GluA1/2 (Homo sapiens, UniProt P42261+P42262); assay: Electrophysiology of Xenopus laevis oocytes expressing GluA1/2; type: cell-based; conditions: IC50 comparison, FIG. 2C
T2 construct: expressed in transfected cells; host or cells: Xenopus laevis oocytes injected with cRNA
Description: as §1
Xenopus laevis oocytes were purchased from the European Xenopus Resource Centre, University of Portsmouth. Stage V to VI oocytes were mechanically dissected and then subjected to gentle shaking for approximately 30-50 min at room temperature with modified Barth's solution (in mM): NaCl 88, KCl 1, NaHCO3 2.4, MgCl2 0.82, CaCl2 0.77, Tris-Cl 15, adjusted to pH 7.4 with NaOH (Sigma-Aldrich, UK), supplemented with 50 IU/ml penicillin and 50 μg/ml streptomycin (Invitrogen, UK) and 50 μg/ml tetracycline (Sigma-Aldrich, UK) and 1% collagenase (type 1A). […]
The data from the electrophysiology experiments were analyzed using GraphPad Prism software (GraphPad software, San Diego Calif., USA) and SPSS (IBM United Kingdom Limited). […]

T1 sequence (P42262 22-883 isoform P42262-2 limits assumed): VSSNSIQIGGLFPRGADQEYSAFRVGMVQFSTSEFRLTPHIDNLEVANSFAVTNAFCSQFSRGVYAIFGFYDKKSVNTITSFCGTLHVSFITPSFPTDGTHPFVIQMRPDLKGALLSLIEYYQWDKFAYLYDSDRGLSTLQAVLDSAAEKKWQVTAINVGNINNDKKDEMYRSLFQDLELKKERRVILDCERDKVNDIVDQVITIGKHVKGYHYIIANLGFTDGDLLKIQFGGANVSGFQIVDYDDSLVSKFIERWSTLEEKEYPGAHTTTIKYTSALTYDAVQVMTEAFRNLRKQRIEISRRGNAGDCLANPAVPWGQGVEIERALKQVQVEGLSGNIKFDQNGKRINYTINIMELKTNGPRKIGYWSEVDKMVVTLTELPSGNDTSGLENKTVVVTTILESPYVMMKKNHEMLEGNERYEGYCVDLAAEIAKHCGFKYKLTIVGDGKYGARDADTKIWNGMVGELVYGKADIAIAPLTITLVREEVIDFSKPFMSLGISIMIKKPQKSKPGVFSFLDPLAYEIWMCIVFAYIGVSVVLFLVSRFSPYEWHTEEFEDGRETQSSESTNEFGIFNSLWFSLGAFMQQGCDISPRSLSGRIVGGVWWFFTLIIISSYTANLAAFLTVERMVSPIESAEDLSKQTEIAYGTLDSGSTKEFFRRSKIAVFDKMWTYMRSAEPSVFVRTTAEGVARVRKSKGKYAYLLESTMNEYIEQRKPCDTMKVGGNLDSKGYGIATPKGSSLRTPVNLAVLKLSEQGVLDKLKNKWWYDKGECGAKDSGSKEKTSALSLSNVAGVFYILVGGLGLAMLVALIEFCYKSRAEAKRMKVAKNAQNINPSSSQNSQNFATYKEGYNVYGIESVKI
T1 sequence (P42263 29-894 isoform P42263-2 limits assumed): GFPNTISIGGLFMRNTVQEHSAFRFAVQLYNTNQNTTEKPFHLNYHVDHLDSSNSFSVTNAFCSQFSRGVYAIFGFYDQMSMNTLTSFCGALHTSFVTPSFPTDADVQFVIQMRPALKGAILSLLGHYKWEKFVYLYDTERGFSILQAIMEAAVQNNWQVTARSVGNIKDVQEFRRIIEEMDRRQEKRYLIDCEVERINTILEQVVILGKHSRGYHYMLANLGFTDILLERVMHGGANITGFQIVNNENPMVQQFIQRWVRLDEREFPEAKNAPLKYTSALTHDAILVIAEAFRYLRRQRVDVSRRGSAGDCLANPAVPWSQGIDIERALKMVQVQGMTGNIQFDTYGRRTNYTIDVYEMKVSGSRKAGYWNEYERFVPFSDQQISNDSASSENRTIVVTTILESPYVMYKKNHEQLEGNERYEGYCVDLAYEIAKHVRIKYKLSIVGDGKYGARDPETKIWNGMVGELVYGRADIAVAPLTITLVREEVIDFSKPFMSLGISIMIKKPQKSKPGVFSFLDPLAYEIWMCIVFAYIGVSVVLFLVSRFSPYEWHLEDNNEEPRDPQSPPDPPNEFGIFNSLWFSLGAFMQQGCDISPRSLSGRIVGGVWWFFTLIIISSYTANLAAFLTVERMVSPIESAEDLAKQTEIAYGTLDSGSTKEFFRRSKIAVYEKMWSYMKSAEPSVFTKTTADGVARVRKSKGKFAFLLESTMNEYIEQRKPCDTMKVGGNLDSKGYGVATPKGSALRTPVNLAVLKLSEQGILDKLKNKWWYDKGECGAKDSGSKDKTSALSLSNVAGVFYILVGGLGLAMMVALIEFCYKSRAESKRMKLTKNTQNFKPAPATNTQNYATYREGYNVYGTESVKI
T2 sequence (P42261 19-906 isoform P42261-2 limits assumed): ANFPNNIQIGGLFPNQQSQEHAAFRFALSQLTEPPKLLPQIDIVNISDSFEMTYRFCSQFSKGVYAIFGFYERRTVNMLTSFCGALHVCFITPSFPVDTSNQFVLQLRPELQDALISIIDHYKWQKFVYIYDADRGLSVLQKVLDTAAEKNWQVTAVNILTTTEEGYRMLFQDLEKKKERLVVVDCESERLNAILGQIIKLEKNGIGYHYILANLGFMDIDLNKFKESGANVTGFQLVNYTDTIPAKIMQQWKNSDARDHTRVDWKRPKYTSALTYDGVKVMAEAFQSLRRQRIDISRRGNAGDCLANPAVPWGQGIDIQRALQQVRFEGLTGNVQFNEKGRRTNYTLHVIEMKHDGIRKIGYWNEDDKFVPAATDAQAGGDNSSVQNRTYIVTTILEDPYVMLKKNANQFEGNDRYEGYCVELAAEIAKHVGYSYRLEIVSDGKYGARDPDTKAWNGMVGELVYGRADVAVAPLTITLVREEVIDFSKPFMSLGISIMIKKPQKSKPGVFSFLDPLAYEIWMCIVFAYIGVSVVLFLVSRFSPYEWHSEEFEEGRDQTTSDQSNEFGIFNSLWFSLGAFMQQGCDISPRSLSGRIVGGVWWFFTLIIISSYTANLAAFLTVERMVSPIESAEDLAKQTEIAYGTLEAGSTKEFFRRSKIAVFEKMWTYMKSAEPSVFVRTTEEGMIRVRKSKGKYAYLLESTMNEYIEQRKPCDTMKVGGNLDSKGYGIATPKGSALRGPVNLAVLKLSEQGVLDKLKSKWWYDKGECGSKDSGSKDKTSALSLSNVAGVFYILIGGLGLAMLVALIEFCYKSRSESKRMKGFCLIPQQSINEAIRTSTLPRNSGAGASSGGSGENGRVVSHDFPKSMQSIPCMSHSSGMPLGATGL
T2 sequence (P42262 22-883 isoform P42262-2 limits assumed): as the sequence (P42262 22-883 isoform P42262-2 limits assumed) above

Row | reduction of AMPA-R generated current in comparison to the control (AMPA receptor GluA2/3) | inhibition of AMPA receptors (subunit GluA2/3) compared to decanoic acid (AMPA receptor GluA2/3) | inhibitory effect on AMPA receptors consisting of GluA1/2 subunits compared to decanoic acid (AMPA receptor GluA1/2) | reduction of AMPA-R generated current in comparison to decanoic acid (AMPA receptor GluA2/3) | reduction of AMPA-R generated current in comparison to 4-BCCA (AMPA receptor GluA2/3) | Compound
1 | significant reduction | – | – | – | – | CCCOCC1CCC(CC(=O)O)CC1 (stereo not shown) [compound 175, 4-(propoxymethyl)cyclohexyl acetic acid]
2 | – | more potent inhibition | enhanced inhibitory effect | – | – | CCCCCC1CCC(CC(=O)O)CC1 (racemic) [Compound 4-PCEA, 2-(4-pentylcyclohexyl)ethanoic acid]
3 | significant reduction | – | – | – | – | CCNCC1CCC(CC(=O)O)CC1 (stereo not shown) [compound 179, {4-[(ethylamino)methyl]cyclohexyl}acetic acid]
4 | significant reduction | – | – | significant reduction | significant reduction | CC(C)CCC1CCC(C(=O)O)CC1 (stereo not shown) [compound 181, 4-(3-methylbutyl)cyclohexanecarboxylic acid]
5 | significant reduction | – | – | – | – | CC(C)CCCC1CCC(CC(=O)O)CC1 (stereo not shown) [compound 172, [4-(4-methylpentyl)cyclohexyl]acetic acid]
6 | significant reduction | – | – | significant reduction | significant reduction | CCC(C)CCC1CCC(CC(=O)O)CC1 (stereo not shown) [compound 176, [4-(3-methylpentyl)cyclohexyl]acetic acid]
7 | significant reduction | – | – | – | – | CCOCC1CCC(C(=O)O)CC1 (stereo not shown) [compound 177, 4-(ethoxymethyl)cyclohexancarboxylic acid]
8 | significant reduction | – | – | significant reduction | significant reduction | CCCCC=C1CCC(CC(=O)O)CC1 (stereo not shown) [compound 182, (4-pentylidenecyclohexyl)acetic acid]
9 | significant reduction | – | – | – | – | CCCCC1CCC(C(=O)O)NC1 (stereo not shown) [compound 178, 5-butylpiperidine-2-carboxylic acid]
10 | significant reduction | – | – | significant reduction | significant reduction | CCC(C)CC1CCC(C(=O)O)CC1 (stereo not shown) [compound 184, 4-(2-methylbutyl)cyclohexanecarboxylic acid]
11 | significant reduction | – | – | significant reduction | significant reduction | CCCC(C)CC1CCC(CC(=O)O)CC1 (stereo not shown) [compound 185, [4-(2-methylpentyl)cyclohexyl]acetic acid]
12 | significant reduction | – | – | – | – | CC/C=C/C1CCC(C(=O)O)CC1 (stereo not shown) [compound 174, 4-[(1E)-but-1-en-1-yl]cyclohexanecarboxylic acid]
13 | significant reduction | – | – | – | – | CCCOC1CCC(C(=O)O)CC1 (stereo not shown) [compound 180, 4-propoxycyclohexanecarboxylic acid]
14 | – | more potent inhibition | – | – | – | CCCCCc1ccc(CC(=O)O)cc1 [Compound 4-PPEA, 4-pentylphenylethanoic acid]
